Consider 73 molecules from paper PMC12040169 (PLOS Biology, 2025).

The nature of this data set: in vitro. Conditions: human, hela cells, % viability.

Each structure is given as a SMILES string.

As for `O=C(CC1CCN(C(=O)CC2CCCCC2)CC1)Nc1ccccc1CN1CCCC1` [CBK286046], the viability at 28.5 h, 10 µM came to 100%.

For the molecule `CC(CN1CCOCC1)C(=O)N1CC(C(=O)N2CCN(c3ccccc3)CC2)C1` (stereo not shown) [CBK286047], the viability at 28.5 h, 10 µM is 90.6%.

For the molecule `CN1CCN(C(=O)Cn2cc(C(=O)Nc3ccc(F)cc3)ccc2=O)C(c2ccccc2)C1` (stereo not shown) [CBK286050], the viability at 28.5 h, 10 µM was determined as 81.9%.

On to `Cc1ccc(C2CCCN2C(=O)Cn2cc(C(=O)NCc3ccccc3)ccc2=O)cc1C` (stereo not shown) [CBK286051], for which the viability at 28.5 h, 10 µM came to 88.1%.

For `Cc1ccc(C)c(C2CCCN2C(=O)Cn2cc(C(=O)NCc3ccccc3)ccc2=O)c1` (stereo not shown) [CBK286052], the viability at 28.5 h, 10 µM worked out at 112%.

With `O=C(Cn1cccc(C(=O)Nc2ccc(F)cc2)c1=O)Nc1nc2c(s1)CCCCC2` [CBK286055], the viability at 28.5 h, 10 µM turned out to be 84.7%.

Take `O=C(Cn1cccc(C(=O)NC2CCCCC2)c1=O)Nc1nc2c(s1)CCCCC2` [CBK286056]: the viability at 28.5 h, 10 µM is 90.1%.

Turning to `O=C(Cn1cccc(C(=O)NCc2ccccc2)c1=O)NC1(c2ccccc2)CCCC1` [CBK286058], the viability at 28.5 h, 10 µM is 89.1%.

`CCCn1cnc2cc(NC(=O)Cn3cccc(C(=O)Nc4ccc(F)cc4)c3=O)ccc21` [CBK286060]: the viability at 28.5 h, 10 µM worked out at 84.7%.

Regarding `CCC(c1ccc(F)cc1)N(C)C(=O)Cn1cccc(C(=O)Nc2ccc(F)cc2)c1=O` (stereo not shown) [CBK286061], the viability at 28.5 h, 10 µM stood at 88.7%.

`Cc1ccc(C)c(C2CCCN2C(=O)Cn2cccc(C(=O)NCc3ccccc3)c2=O)c1` (stereo not shown) [CBK286062]: the viability at 28.5 h, 10 µM came to 78.5%.

As to `CC1CCc2nc(NC(=O)Cn3cccc(C(=O)Nc4ccc(F)cc4)c3=O)sc2C1` (stereo not shown) [CBK286063], the viability at 28.5 h, 10 µM turned out to be 95.5%.

Consider `CC(CN(C)C(=O)Cn1cccc(C(=O)Nc2ccc(F)cc2)c1=O)c1ccccc1` (stereo not shown) [CBK286065], for which the viability at 28.5 h, 10 µM was determined as 92.5%.

Turning to `CC(CN(C)C(=O)Cn1cccc(C(=O)NC2CCCCC2)c1=O)c1ccccc1` (stereo not shown) [CBK286066], the viability at 28.5 h, 10 µM amounted to 92.5%.

As to `CC(C)(CNC(=O)Cn1cccc(C(=O)NC2CCCCC2)c1=O)c1ccccc1F` [CBK286068], the viability at 28.5 h, 10 µM was 89.6%.

For the molecule `CCn1c(CN2CCCC2c2nc(N(C)C)ncc2-c2ccccc2)nc2ccccc21` (stereo not shown) [CBK286070], the viability at 28.5 h, 10 µM is 83.4%.

In the case of `Cc1cc(C)nc(N2CCC(CC(=O)NCc3ccccc3N3CCCC3)CC2)n1` [CBK286071], the viability at 28.5 h, 10 µM amounted to 95.5%.

As for `Cc1cc(C)nc(N2CCC(CC(=O)Nc3ccccc3CN3CCCC3)CC2)n1` [CBK286072], the viability at 28.5 h, 10 µM is 104%.

In the case of `Cc1cc(C)nc(N2CCC(c3cc(CCOc4ccc(C(F)(F)F)cc4)[nH]n3)C2)n1` (stereo not shown) [CBK286073], the viability at 28.5 h, 10 µM is 93.5%.

With `Cc1ccc(C2CCCN2C(=O)Cn2cccc(C(=O)NCc3ccccc3)c2=O)cc1C` (stereo not shown) [CBK286074], the viability at 28.5 h, 10 µM is 89.5%.

On to `CCCn1cnc2cc(NC(=O)Cn3cccc(C(=O)NC4CCCCC4)c3=O)ccc21` [CBK286075], for which the viability at 28.5 h, 10 µM was found to be 93%.

With `Cc1ccc2c(c1)cc(C(=O)N1CCCC(C)(C(=O)NC3CCCC3)C1)n2C` (stereo not shown) [CBK286076], the viability at 28.5 h, 10 µM was determined as 81.3%.

In the case of `O=C(NCCCc1ccccc1Cl)c1ccc(=O)n(CC(=O)N2CCCCC2)c1` [CBK286078], the viability at 28.5 h, 10 µM amounted to 85.9%.

With `CC(C)(CNC(=O)Cn1cc(C(=O)Nc2ccc(F)cc2)ccc1=O)c1cccc(F)c1` [CBK286079], the viability at 28.5 h, 10 µM was determined as 99.6%.

For `O=C(Cn1cc(C(=O)NCc2ccc(F)cc2)ccc1=O)NC1(c2ccccc2)CCCC1` [CBK286081], the viability at 28.5 h, 10 µM came out at 96.9%.

Consider `CC(C)c1ccc(C(C)NC(=O)c2ccc(=O)n(CC(=O)N3CCCCC3)c2)cc1` (stereo not shown) [CBK286084], for which the viability at 28.5 h, 10 µM was 88.7%.

Take `O=C(c1ccccc1)N1CCC(c2cccc(Cc3ccccc3Cl)n2)CC1` [CBK286085]: the viability at 28.5 h, 10 µM came out at 88.2%.

Turning to `CN(C)c1ncc(-c2ccc(F)cc2)c(C2CCCN2C(=O)c2nccc3ccccc23)n1` (stereo not shown) [CBK286086], the viability at 28.5 h, 10 µM is 84.3%.

Take `Cc1ccccc1Cc1cccc(C2CCN(CC(=O)Nc3nccs3)CC2)n1` [CBK286089]: the viability at 28.5 h, 10 µM amounted to 97.6%.

Turning to `COc1ccc(-c2cnc(N)nc2C2CCCN(C(=O)CCCc3ccccc3)C2)cc1` (stereo not shown) [CBK286091], the viability at 28.5 h, 10 µM is 94.4%.

For the molecule `Nc1ncc(-c2ccc(F)cc2)c(C2CCCN(C(=O)CCc3ccc(F)cc3)C2)n1` (stereo not shown) [CBK286092], the viability at 28.5 h, 10 µM was 89%.

Consider `c1ccc(Nc2nccc(C3CCCN(Cc4ccc5[nH]ccc5c4)C3)n2)nc1` (stereo not shown) [CBK286093], for which the viability at 28.5 h, 10 µM is 85.3%.

With `CCn1c(C)nc2cc(NC(=O)Cn3cc(C(=O)NC4CCCCC4)ccc3=O)ccc21` [CBK286095], the viability at 28.5 h, 10 µM worked out at 92.9%.

Regarding `CN(C)CCNC(=O)c1sc2ccccc2c1CC1CCCCCN1C(=O)C1CCC1` (stereo not shown) [CBK286096], the viability at 28.5 h, 10 µM was 105%.

`CC(C)(CNC(=O)Cn1cc(C(=O)NC2CCCCC2)ccc1=O)c1ccccc1F` [CBK286099]: the viability at 28.5 h, 10 µM came out at 89%.

As to `COc1ccc(-c2cncc(C3CN(Cc4ccc(C)cc4OC)CCO3)n2)cc1` (stereo not shown) [CBK286100], the viability at 28.5 h, 10 µM is 91.8%.

With `CN1CCN(C(=O)Cn2cc(C(=O)NC3CCCCC3)ccc2=O)C(c2ccccc2)C1` (stereo not shown) [CBK286102], the viability at 28.5 h, 10 µM was 87.3%.

With `Cc1cc(Cc2cccc(Cl)c2)cc(C2CCCN(C(=O)CN3CCCC3=O)C2)n1` (stereo not shown) [CBK286103], the viability at 28.5 h, 10 µM is 94%.

On to `Cc1nc(CC(=O)N2[C@H]3CCCCCN(C)[C@@]3(C)C[C@H]2c2ccccc2)cs1` [CBK286104], for which the viability at 28.5 h, 10 µM is 109%.

With `Cc1cc(C)nc(N2CCC(CC(=O)N(C)CC(C)c3ccccc3)CC2)n1` (stereo not shown) [CBK286105], the viability at 28.5 h, 10 µM was 83.5%.

`COc1ccc(-c2cccc(C3CCCN(C(=O)c4ccc(F)cc4)C3)n2)cc1` (stereo not shown) [CBK286107]: the viability at 28.5 h, 10 µM was determined as 99.3%.

Consider `c1cc(C2CCCCN2Cc2ccc3[nH]ccc3c2)nc(Nc2nccs2)n1` (stereo not shown) [CBK286109], for which the viability at 28.5 h, 10 µM was determined as 83.6%.

As for `CC(C)(CNC(=O)Cn1cc(C(=O)NC2CCCCC2)ccc1=O)c1cccc(F)c1` [CBK286110], the viability at 28.5 h, 10 µM amounted to 88.4%.

With `CC(=O)Nc1ccc(C(=O)N2CCC(c3cccc(Cc4ccccc4Cl)n3)CC2)cc1` [CBK286111], the viability at 28.5 h, 10 µM came to 96.2%.

In the case of `Cc1cccc(CCNC(=O)c2cccn(CC(=O)N(C)C3CCCCC3)c2=O)c1` [CBK286113], the viability at 28.5 h, 10 µM was 104%.

As to `CCC(c1ccc(F)cc1)N(C)C(=O)Cn1cccc(C(=O)NC2CCCCC2)c1=O` (stereo not shown) [CBK286114], the viability at 28.5 h, 10 µM was found to be 96.4%.

With `CCn1cc(NC(=O)CC2CCN(Cc3cccc(C(F)(F)F)c3)CC2)cn1` [CBK286118], the viability at 28.5 h, 10 µM is 89.9%.

Turning to `CC(=O)N1CCCC[C@H]2[C@H]1C[C@@H](c1ccccc1)N2C(=O)CN1CCCCCC1` [CBK286120], the viability at 28.5 h, 10 µM stood at 117%.

Take `CC(C)c1ccc(C(C)NC(=O)Cn2cc(C(=O)NC3CCCC3)ccc2=O)cc1` (stereo not shown) [CBK286121]: the viability at 28.5 h, 10 µM was 103%.

Consider `CC(CNC(=O)c1cccn(CC(=O)Nc2ccc(F)cc2)c1=O)N1CCCCCC1` (stereo not shown) [CBK286123], for which the viability at 28.5 h, 10 µM was determined as 97.5%.

With `Cc1ccccc1Cc1cccc(C2CCN(S(=O)(=O)c3cn[nH]c3)CC2)n1` [CBK286125], the viability at 28.5 h, 10 µM worked out at 90.8%.

For `Cc1nn(C)cc1S(=O)(=O)N1CCCC(c2cccc(Cc3ccccc3Cl)n2)C1` (stereo not shown) [CBK286127], the viability at 28.5 h, 10 µM stood at 106%.

For `O=C1N(CCc2ccccc2)CC=CCC12CN(Cc1ccc3[nH]ccc3c1)CCO2` (stereo not shown) [CBK286130], the viability at 28.5 h, 10 µM was 105%.

For `Cc1cccc(Cc2cccc(C3CCCN(S(=O)(=O)c4cn(C)nc4C)C3)n2)c1` (stereo not shown) [CBK286131], the viability at 28.5 h, 10 µM was found to be 101%.

For the molecule `Cc1cccnc1Nc1ccc(C2CCCCN2Cc2ccc3nccnc3c2)cn1` (stereo not shown) [CBK286133], the viability at 28.5 h, 10 µM came out at 89.8%.

Take `CC(=O)Nc1ccc(C(=O)N2CCCC(c3cccc(Cc4ccc(Cl)cc4)n3)C2)cc1` (stereo not shown) [CBK286134]: the viability at 28.5 h, 10 µM was 99.9%.

Take `COc1ccc(CC(=O)N2CCCC(c3nccnc3-c3cccc(C)c3)C2)cc1` (stereo not shown) [CBK286137]: the viability at 28.5 h, 10 µM is 94.1%.

Regarding `COc1ccccc1Cc1cccc(C2CCCN2C(=O)Cc2c[nH]c3ccccc23)n1` (stereo not shown) [CBK286139], the viability at 28.5 h, 10 µM was found to be 95.2%.

Turning to `Cc1ccccc1Cc1cccc(C2CCN(C(=O)c3ccc(F)cc3)CC2)n1` [CBK286140], the viability at 28.5 h, 10 µM amounted to 88.4%.

Regarding `COc1cccc(Cc2cccc(C3CCN(C(=O)Cc4c[nH]c5ccccc45)CC3)n2)c1` [CBK286145], the viability at 28.5 h, 10 µM is 93.1%.

Consider `COc1cccc(Cc2cccc(C3CCN(C(=O)Cc4ccccc4)CC3)n2)c1` [CBK286147], for which the viability at 28.5 h, 10 µM is 96.9%.

In the case of `Cc1cccc(-c2cncc(C3CCCN(C(=O)Cc4c[nH]c5ccccc45)C3)n2)c1` (stereo not shown) [CBK286149], the viability at 28.5 h, 10 µM came to 84.1%.

In the case of `Cn1cc(CN2CCC(c3cncc(-c4cccc(C(F)(F)F)c4)n3)CC2)cn1` [CBK286150], the viability at 28.5 h, 10 µM came out at 78.4%.

Turning to `O=C(CN1CCC(c2cncc(-c3cccc(C(F)(F)F)c3)n2)CC1)N1CCCC1` [CBK286152], the viability at 28.5 h, 10 µM was 94.3%.

As for `COc1cccc(-c2cncc(C3CCN(C(=O)CCOc4ccccc4)CC3)n2)c1` [CBK286153], the viability at 28.5 h, 10 µM stood at 88.9%.

Take `Cc1ccccc1-c1cncc(C2CCN(C(=O)CCOc3ccccc3)CC2)n1` [CBK286154]: the viability at 28.5 h, 10 µM was determined as 99%.

For `CCn1ncc(S(=O)(=O)N2CCCC(c3cccc(-c4cccc(OC)c4)n3)C2)c1C` (stereo not shown) [CBK286155], the viability at 28.5 h, 10 µM turned out to be 96.8%.

For `CCOc1ccc(NC(c2ccccc2)c2cc3cc(OC)ccc3[nH]c2=O)cc1` (stereo not shown) [CBK286157], the viability at 28.5 h, 10 µM was 81.7%.

For the molecule `COc1ccc(-c2ccccc2)cc1NCc1cc2cc(OC)c(OC)cc2[nH]c1=O` [CBK286160], the viability at 28.5 h, 10 µM was 99.5%.

On to `Cc1ccc2nc(O)c(CNc3ccc(-c4nc5cc(C)ccc5[nH]4)cc3)cc2c1` [CBK286161], for which the viability at 28.5 h, 10 µM came to 89.7%.

As for `Cc1ccc2cc(CNc3ccc4c(c3)-c3ccccc3S(=O)(=O)N4)c(=O)[nH]c2c1` [CBK286163], the viability at 28.5 h, 10 µM was found to be 70.6%.

For `Cc1cc2cc(CNc3cc(-c4ccccc4)ccc3O)c(=O)[nH]c2cc1C` [CBK286164], the viability at 28.5 h, 10 µM stood at 82.7%.

Consider `COc1ccc(CCNC2CCN(Cc3ccccc3)CC2c2ccccc2)cc1OC` (stereo not shown) [CBK286166], for which the viability at 28.5 h, 10 µM was 92.8%.
